Earlier results as cited in US10596124B2, “Lipid nanoparticle compositions and methods as carriers of cannabinoids in standardized precision-metered dosage forms” (NanoSphere Health Sciences, LLC, priority 2015, dated 2020).

Conditions: intranasal

In the case of C=C(C)[C@@H]1CCC(C)=C[C@H]1c1c(O)cc(CCCCC)cc1O [CBD, cannabidiol], the “time to absorption into the systemic circulation” value is given as ≤ 10 min.
